Experimental data: patent publication US7645738B2, “18-membered nitrobenzyl- and aminobenzyl-substituted cyclohexadepsipeptides for controlling endoparasites and a process for their preparation” (Bayer Animal Health GmbH, priority 2003, dated 2010)

Columns and labels:
[1] = system: Trichostrongylus colubriformis; assay: In vivo nematode test Trichostrongylus colubriformis/sheep; details: sheep experimentally infected with Trichostrongylus colubriformis; applied orally and/or intravenously as pure active compound; complete cessation of egg excretion after treatment
Protocol: Trichostrongylus colubriformis/sheep
Sheep which had been experimentally infected with Trichostrongylus colubriformis were treated after the prepotency time of the parasite had elapsed. The active compounds were applied orally and/or intravenously as pure active compound.
(§1) The degree of effectiveness is determined by quantitatively counting the worm eggs which have been excreted with the faeces before and after the treatment.
(§2) A complete cessation of egg excretion after the treatment means that the worms have been aborted or damaged to such an extent that they no longer produce eggs (dosis effectiva).
(§3) Active compounds tested and effective dosage rates (dosis effectiva) can be seen from the table which follows.

Haemonchus contortus = assay: In vivo nematode test Haemonchus contortus/sheep; details: sheep experimentally infected with Haemonchus contortus; applied orally and/or intravenously as pure active compound; complete cessation of egg excretion after treatment
Protocol: Haemonchus contortus/sheep
Sheep which had been experimentally infected with Haemonchus contortus were treated after the prepotency time of the parasite had elapsed. The active compounds were applied orally and/or intravenously as pure active compound.
as §1, §2, §3

log P value from HPLC = assay type: physicochemical; details: 0.1% phosphoric acid/acetonitrile gradient
Protocol: HPLC (0.1% phosphoric acid/acetonitrile; gradient: 90/10 (1) 5%/min, 5/95 (6); flow rate: 1.5 mil/min; UV: 210 nm): Rt=12.57 min; log P value 3.58.

melting point | Structure (SMILES) | Effective dosage (dosis effectiva) [1] | Effective dosage (dosis effectiva) (Haemonchus contortus) | chromatographic logP (log P value from HPLC)
 | CCC(C)[C@H]1C(=O)O[C@H](Cc2ccc(N3CCOCC3)cc2)C(=O)N(C)[C@@H](C(C)CC)C(=O)O[C@H](C)C(=O)N(C)[C@@H](C)C(=O)O[C@H](C)C(=O)N1C (stereo partly drawn) [Example I-1, Cyclo(-N-methyl-L-alanyl-D-lactyl-N-methyl-L-isoleucyl-D-4-morpholino-phenyllactyl-N-methyl-L-isoleucyl-D-lactyl-)] | 0.25 mg/kg | 0.10 mg/kg | 3.58
 | CCC(C)[C@H]1C(=O)O[C@H](Cc2ccc(NCCS(=O)(=O)CCO)cc2)C(=O)N(C)[C@@H](C(C)CC)C(=O)O[C@H](C)C(=O)N(C)[C@@H](C)C(=O)O[C@H](C)C(=O)N1C (stereo partly drawn) [Example I-2, Cyclo(-N-methyl-L-alanyl-D-lactyl-N-methyl-L-isoleucyl-D-4-(2-hydroxyethyl-sulphonyl-ethylamino-phenyl)lactyl-N-methyl-L-isoleucyl-D-lactyl-)] |  | 0.10 mg/kg | 
 | CCC(C)[C@H]1C(=O)O[C@H](Cc2ccccc2)C(=O)N(C)[C@@H](C(C)CC)C(=O)O[C@H](C)C(=O)N(C)[C@@H](C)C(=O)O[C@H](C)C(=O)N1C (stereo partly drawn) [Example II-1, Cyclo(-N-methyl-L-alanyl-D-lactyl-N-methyl-L-isoleucyl-D-phenyllactyl-N-methyl-L-isoleucyl-D-lactyl-)] |  |  | 4.23
122 to 126 °C | CCC(C)[C@H]1C(=O)O[C@H](Cc2ccc([N+](=O)[O-])cc2)C(=O)N(C)[C@@H](C(C)CC)C(=O)O[C@H](C)C(=O)N(C)[C@@H](C)C(=O)O[C@H](C)C(=O)N1C (stereo partly drawn) [Example III-1, Cyclo(-N-methyl-L-alanyl-D-lactyl-N-methyl-L-isoleucyl-D-4-nitro-phenyllactyl-N-methyl-L-isoleucyl-D-lactyl-)] |  |  | 
 | CCC(C)C1C(=O)OC(Cc2ccccc2N)C(=O)N(C)C(C(C)CC)C(=O)OC(C)C(=O)N(C)C(C)C(=O)OC(C)C(=O)N1C [Example IV-1, Cyclo(-N-methyl-L-alanyl-D-lactyl-N-methyl-L-isoleucyl-D-2-amino-phenyllactyl-N-methyl-L-isoleucyl-D-lactyl-)] |  | 0.05 mg/kg | 
 | CC[C@H](C)[C@H]1C(=O)O[C@H](Cc2cccc(N)c2)C(=O)N(C)[C@@H]([C@@H](C)CC)C(=O)O[C@H](C)C(=O)N(C)[C@@H](C)C(=O)O[C@H](C)C(=O)N1C [Example IV-2, Cyclo(-N-methyl-L-alanyl-D-lactyl-N-methyl-L-isoleucyl-D-3-amino-phenyllactyl-N-methyl-L-isoleucyl-D-lactyl-)] | 0.25 mg/kg | 0.05 mg/kg | 
